From US9169252B2 (BRISTOL-MYERS SQUIBB COMPANY, priority 2014, dated 2015)
Read-outs that look alike come from different tables or passages of the source.

Key:
[1] = biological target: IRAK4 (Homo sapiens (Human), UniProt Q9NWZ3); test: IRAK4 Inhibition Assay; type: biochemical; conditions: ATP 500 μM; IRAK4 0.6 nM; read-out: IRAK4 IC50
Method in brief: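 Mobility-shift readout: fluorescent substrate and phosphoproduct resolved electrophoretically on Caliper LabChip 3000 after EDTA quench (35 mM). Enzyme reaction of IRAK4, substrates and test compound ran 60 min at room temperature.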

[2] = tested on: TLR2 induced IL-6 in peripheral blood mononuclear cells (PBMCs); test: PBMC TLR2 Induced IL-6 Assay; type: cell-based, human; conditions: human PBMCs, lipoteichoic acid stimulated, IL-6 by ELISA; for EC50: read-out: Cell EC50; for IC50: read-out: Cell IC50
Method in brief: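 Lipoteichoic acid at 10 µg/ml served as TLR2 stimulus for 5 hours, following a 30-minute compound pretreatment at 37° C. Cells were Ficoll-isolated human PBMCs, 250000 cells/well, cultured in RPMI plus 10% heat-inactivated FCS.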

Chain of IRAK4 (Q9NWZ3 whole entry, species assumed): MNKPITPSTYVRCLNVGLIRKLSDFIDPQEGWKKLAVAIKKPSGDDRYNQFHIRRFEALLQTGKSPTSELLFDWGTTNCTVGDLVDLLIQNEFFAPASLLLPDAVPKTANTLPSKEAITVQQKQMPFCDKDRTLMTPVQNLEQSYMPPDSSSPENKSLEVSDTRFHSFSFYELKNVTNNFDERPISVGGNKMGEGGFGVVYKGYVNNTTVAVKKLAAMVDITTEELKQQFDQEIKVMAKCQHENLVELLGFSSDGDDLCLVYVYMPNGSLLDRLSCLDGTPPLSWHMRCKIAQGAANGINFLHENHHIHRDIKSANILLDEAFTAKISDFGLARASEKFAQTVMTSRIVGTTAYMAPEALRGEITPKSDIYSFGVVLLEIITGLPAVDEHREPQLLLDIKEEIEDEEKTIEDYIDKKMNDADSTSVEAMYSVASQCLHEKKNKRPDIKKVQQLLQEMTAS

Structure (SMILES)	IC50 [1]	EC50 [2]	EC50 ([2]; Homo sapiens, PBMC)	IC50 ([2]; Homo sapiens, PBMC)
CC(C)(O)[C@H]1CC[C@H](NC(=O)c2cnc(-n3ccc4cc(F)cnc43)cc2NC2CC2)CC1 [Example 428]	4.6 nM		361 nM	
CC(C)(O)[C@H]1CC[C@H](NC(=O)c2cnc(-n3ccc4cc(C#N)cnc43)cc2NC2CC2)CC1 [Example 429]	1.5 nM		92 nM	
CC(C)(O)[C@H](F)CNC(=O)c1cnc(-n2ccc3cc(C#N)cnc32)cc1Nc1cccc(C#N)c1F [Example 430]	2.1 nM		208 nM	
CC(C)(O)[C@H](F)CNC(=O)c1cnc(-n2ccc3cc(C#N)cnc32)cc1Nc1cccc(-c2ncc[nH]2)c1 [Example 431]	2.1 nM		106 nM	
CC(C)NC(=O)[C@H](F)CNc1cc(-n2ccc3cc(C#N)cnc32)ncc1C(=O)NC[C@@H](F)C(C)(C)O [Example 435]	9.9 nM		291 nM	
CC(C)(O)[C@H](F)CNC(=O)c1cnc(-n2ccc3cc(C#N)cnc32)cc1Nc1ccc2[nH]ncc2c1 [Example 438]	2.5 nM		33 nM	
CC(C)(O)[C@H](F)CNC(=O)c1cnc(-n2ccc3cc(C#N)cnc32)cc1N[C@@H]1CCOC1 [Example 440]	1.9 nM		72 nM	
CC(C)Nc1cc(-n2ccc3cc(C#N)cnc32)ncc1C(=O)NC1CCN(S(C)(=O)=O)CC1 [Example 447]	5.3 nM		92 nM	
CCOC(C)(C)[C@H](F)CNC(=O)c1cnc(-n2ccc3cc(C#N)cnc32)cc1NC(C)C [Example 448]	2.4 nM		175 nM	
CC(C)(O)[C@H](F)CNC(=O)c1cnc(-n2ccc3cc(C#N)cnc32)cc1N[C@@H]1CCN(c2ncc(F)cn2)C1 [Example 449]	1.5 nM		82 nM	59 nM
C[C@@H](Nc1cc(-n2ccc3cc(C#N)cnc32)ncc1C(=O)NC[C@@H](F)C(C)(C)O)C1CC1 [Example 450]	2.8 nM		268 nM	438 nM
C[C@H](Nc1cc(-n2ccc3cc(C#N)cnc32)ncc1C(=O)NC[C@@H](F)C(C)(C)O)C1CC1 [Example 451]	4.4 nM		429 nM	
CC(C)Nc1cc(-n2ccc3cc(C#N)cnc32)ncc1C(=O)NCCNS(=O)(=O)N1CCOCC1 [Example 452]	5.2 nM		700 nM	252 nM
CC(C)(O)[C@H](F)CNC(=O)c1cnc(-n2ccc3cc(C#N)cnc32)cc1N[C@@H]1COC[C@H]1O [Example 456]	4.8 nM	241 nM		
CC(C)(O)[C@H](F)CNC(=O)c1cnc(-n2ccc3cc(C#N)cnc32)cc1N[C@@H]1CCNC1 [Example 466]	13.9 nM		792 nM	130 nM
CC(C)(O)[C@H](F)CNC(=O)c1cnc(-n2ccc3cc(C#N)cnc32)cc1N[C@@H]1CCN(C(=O)CC(F)(F)F)C1 [Example 473]	4.1 nM		238 nM	483 nM
CC(C)(O)[C@H](F)CNC(=O)c1cnc(-n2ccc3cc(C#N)cnc32)cc1NC1CN(S(C)(=O)=O)C1 [Example 476]	3 nM		198 nM	
C[C@@H](CO)Nc1cc(-n2ccc3cc(C#N)cnc32)ncc1C(=O)NCCNS(C)(=O)=O [Example 478]	4.7 nM		462 nM	805 nM
CS(=O)(=O)NCCNC(=O)c1cnc(-n2ccc3cc(C#N)cnc32)cc1NC1CCOCC1 [Example 479]	5.7 nM		144 nM	835 nM
CC(C)(O)[C@H](F)CNC(=O)c1cnc(-n2ccc3cc(C#N)cnc32)cc1NCCN1CCOCC1 [Example 480]	4 nM		170 nM	270 nM
CC(C)(O)[C@H](F)CNC(=O)c1cnc(-n2ccc3cc(C#N)cnc32)cc1NCC1CCOCC1 [Example 482]	17.4 nM		433 nM	

The remaining compounds from weak to strong by IC50 [1], led by results:

IC50 [1]	Structure (SMILES)	EC50 [2]	EC50 ([2]; Homo sapiens, PBMC)	IC50 ([2]; Homo sapiens, PBMC)
10.3 nM	CC(C)(C)OC(=O)N1CC(Nc2cc(-n3ccc4cc(C#N)cnc43)ncc2C(=O)NC[C@@H](F)C(C)(C)O)C1 [Example 457]		458 nM	1240 nM
10.1 nM	CC(C)(O)[C@H](F)CNC(=O)c1cnc(-n2ccc3cc(C#N)cnc32)cc1Nc1ccc(-n2ccnc2)cc1 [Example 471]		194 nM	
8 nM	CC(=O)N1CCC(Nc2cc(-n3ccc4cc(C#N)cnc43)ncc2C(=O)NC[C@@H](F)C(C)(C)O)CC1 [Example 470]		240 nM	
6 nM	Cn1nccc1Nc1cc(-n2ccc3cc(C#N)cnc32)ncc1C(=O)NC[C@@H](F)C(C)(C)O [Example 424]	338 nM		
5.8 nM	CC(=O)N1CC(Nc2cc(-n3ccc4cc(C#N)cnc43)ncc2C(=O)NC[C@@H](F)C(C)(C)O)C1 [Example 468]		128 nM	1010 nM
4.4 nM	CS(=O)(=O)NCCNC(=O)c1cnc(-n2ccc3cc(C#N)cnc32)cc1NC1CC1 [Example 453]		213 nM	326 nM
4.1 nM	CCn1nnnc1-c1ccc(Nc2cc(-n3ccc4cc(C#N)cnc43)ncc2C(=O)NC[C@@H](F)C(C)(C)O)cc1 [Example 433]		164 nM	499 nM
3.1 nM	CC(C)(O)[C@H](F)CNC(=O)c1cnc(-n2ccc3cc(C#N)cnc32)cc1NC1CCN(c2ccccc2)CC1 [Example 464]		257 nM	
3 nM	CC(C)(O)[C@H](F)CNC(=O)c1cnc(-n2ccc3cc(C#N)cnc32)cc1N[C@H]1CCOC1 [Example 441]		109 nM	
2.9 nM	CC(=O)N1CC[C@@H](Nc2cc(-n3ccc4cc(C#N)cnc43)ncc2C(=O)NC[C@@H](F)C(C)(C)O)C1 [Example 469]		84 nM	207 nM
2.9 nM	CC(C)(O)[C@H](F)CNC(=O)c1cnc(-n2ccc3cc(C#N)cnc32)cc1N[C@@H]1CCN(C(=O)CC#N)C1 [Example 477]		301 nM	1300 nM
2.6 nM	CC(C)(O)[C@H](F)CNC(=O)c1cnc(-n2ccc3cc(C#N)cnc32)cc1Nc1ccc2nc[nH]c2c1 [Example 439]		73 nM	
2.3 nM	CC(C)Nc1cc(-n2ccc3cc(C#N)cnc32)ncc1C(=O)NCC(=O)N1CCN(C)CC1 [Example 467]		26 nM	100 nM
2.2 nM	CC(C)(O)[C@H](F)CNC(=O)c1cnc(-n2ccc3cc(C#N)cnc32)cc1N[C@@H]1COC[C@H]1O [Example 455]	72 nM		
2.1 nM	C[C@@H](CO)Nc1cc(-n2ccc3cc(F)cnc32)ncc1C(=O)N[C@H]1CC[C@H](C(C)(C)O)CC1 [Example 432]		80 nM	
2 nM	CC(C)(O)[C@H](F)CNC(=O)c1cnc(-n2ccc3cc(C#N)cnc32)cc1NC1CN(c2ncc(F)cn2)C1 [Example 472]		70 nM	123 nM
1.9 nM	COC(=O)N1CC(Nc2cc(-n3ccc4cc(C#N)cnc43)ncc2C(=O)NC[C@@H](F)C(C)(C)O)C1 [Example 481]		53 nM	595 nM
1.8 nM	CC(C)(O)[C@H](F)CNC(=O)c1cnc(-n2ccc3cc(C#N)cnc32)cc1NCCC(F)(F)F [Example 425]		154 nM	
1.8 nM	CC(C)(O)[C@H](F)CNC(=O)c1cnc(-n2ccc3cc(C#N)cnc32)cc1Nc1ccc2nn[nH]c2c1 [Example 436]		165 nM	
1.7 nM	CC(C)(O)[C@H](F)CNC(=O)c1cnc(-n2ccc3cc(C#N)cnc32)cc1NC1CCN(S(C)(=O)=O)CC1 [Example 463]		23 nM	
1.3 nM	CC(C)(O)[C@H](F)CNC(=O)c1cnc(-n2ccc3cc(C#N)cnc32)cc1N[C@@H]1CCN(S(C)(=O)=O)C1 [Example 465]		7 nM	23 nM
1.2 nM	COC(=O)N1CC[C@@H](Nc2cc(-n3ccc4cc(C#N)cnc43)ncc2C(=O)NC[C@@H](F)C(C)(C)O)C1 [Example 474]		77 nM	315 nM
1 nM	CC(C)(O)[C@H](F)CNC(=O)c1cnc(-n2ccc3cc(C#N)cnc32)cc1NC1COC1 [Example 437]		42 nM	
